In patent publication US20210317134A1, “UBIQUITIN-SPECIFIC-PROCESSING PROTEASE 7 (USP7) MODULATORS AND USES THEREOF” (RAPT THERAPEUTICS, INC., priority 2019, published 2021) one finds IC50 data, which are given here for 8 molecules.

Where only a bound is given, the exact number is not on record here.

In the experiment the target is USP7 (Homo sapiens, UniProt Q93009). In words: USP7 inhibitory potency (Table 1). Format: biochemical.
USP7, sequence (Q93009 whole entry): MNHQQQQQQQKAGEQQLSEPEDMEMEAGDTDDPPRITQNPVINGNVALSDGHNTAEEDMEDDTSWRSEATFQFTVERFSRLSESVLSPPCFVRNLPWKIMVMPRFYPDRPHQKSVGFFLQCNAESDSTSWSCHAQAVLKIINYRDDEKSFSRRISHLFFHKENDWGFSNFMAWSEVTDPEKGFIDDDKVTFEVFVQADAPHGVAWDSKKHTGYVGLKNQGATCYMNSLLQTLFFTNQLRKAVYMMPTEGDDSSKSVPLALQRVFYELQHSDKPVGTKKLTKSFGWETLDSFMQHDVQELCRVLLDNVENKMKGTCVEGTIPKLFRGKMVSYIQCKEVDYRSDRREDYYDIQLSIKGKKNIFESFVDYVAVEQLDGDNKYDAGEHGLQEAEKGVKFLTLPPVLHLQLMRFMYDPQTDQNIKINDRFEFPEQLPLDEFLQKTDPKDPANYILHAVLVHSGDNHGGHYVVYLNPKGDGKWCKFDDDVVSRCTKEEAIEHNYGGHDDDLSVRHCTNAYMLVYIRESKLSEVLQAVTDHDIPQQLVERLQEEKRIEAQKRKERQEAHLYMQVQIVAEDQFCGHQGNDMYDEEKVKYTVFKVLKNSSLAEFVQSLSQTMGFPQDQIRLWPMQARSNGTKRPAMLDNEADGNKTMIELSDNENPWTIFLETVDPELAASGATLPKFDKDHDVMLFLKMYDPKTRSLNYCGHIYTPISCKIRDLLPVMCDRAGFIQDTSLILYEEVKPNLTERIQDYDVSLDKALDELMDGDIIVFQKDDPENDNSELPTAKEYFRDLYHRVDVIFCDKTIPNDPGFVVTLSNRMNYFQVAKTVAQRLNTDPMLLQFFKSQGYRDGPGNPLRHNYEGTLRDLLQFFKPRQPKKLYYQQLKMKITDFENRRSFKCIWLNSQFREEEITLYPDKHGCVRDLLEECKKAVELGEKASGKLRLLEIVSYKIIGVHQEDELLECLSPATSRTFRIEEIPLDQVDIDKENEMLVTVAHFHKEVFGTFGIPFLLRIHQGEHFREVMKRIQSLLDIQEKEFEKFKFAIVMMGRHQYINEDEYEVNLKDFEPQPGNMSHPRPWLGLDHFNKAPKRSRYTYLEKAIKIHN
`O=C([C@H]1Cc2cc(Cl)cc(-c3ccnc4cc(CCO)sc34)c2O1)N1CCNCC1` [(R)-(5-chloro-7-(2-(2-hydroxyethyl)thieno[3,2-b]pyridin-7-yl)-2,3-dihydrobenzofuran-2-yl)(piperazin-1-yl)methanone] showed an IC50 of less than 1000 nM.

`O=C(C1Cc2cc(Cl)cc(-c3ccnc4ccc(Cl)cc34)c2O1)N1CCNCC1` (centres unmarked) [(5-chloro-7-(6-chloroquinolin-4-yl)-2,3-dihydrobenzofuran-2-yl)(piperazin-1-yl)methanone] registered an IC50 of 10000 to 30000 nM.

In turn, `CC(=O)NCCc1cc2nccc(-c3cc(Cl)cc4c3O[C@@H](C(=O)N3CCNCC3)C4)c2s1` [(R)-N-(2-(7-(5-chloro-2-(piperazine-1-carbonyl)-2,3-dihydrobenzofuran-7-yl)thieno[3,2-b]pyridin-2-yl)ethyl)acetamide] registered an IC50 of less than 1000 nM.

`NS(=O)(=O)CCc1cc2nccc(-c3cc(Cl)cc4c3O[C@@H](C(=O)N3CCNCC3)C4)c2s1` [(R)-2-(7-(5-chloro-2-(piperazine-1-carbonyl)-2,3-dihydrobenzofuran-7-yl)thieno[3,2-b]pyridin-2-yl)ethane-1-sulfonamide] came in with a concentration for half-maximal inhibition (IC50) of less than 1000 nM.

In turn, `CN(C)C1CN(C(=O)[C@H]2Cc3cc(Cl)cc(-c4ccnc5cc(CO)sc45)c3O2)C1` [(R)-(5-chloro-7-(2-(hydroxymethyl)thieno[3,2-b]pyridin-7-yl)-2,3-dihydrobenzofuran-2-yl)(3-(dimethylamino)azetidin-1-yl)methanone] displayed an IC50 of less than 1000 nM.

`CC[C@@H](O)c1cc2ncnc(-c3cc(Cl)cc4c3O[C@@H](c3onc5c3CNCC5)C4)c2s1` [(R)-1-(4-((R)-5-chloro-2-(4,5,6,7-tetrahydroisoxazolo[4,3-c]pyridin-3-yl)-2,3-dihydrobenzofuran-7-yl)thieno[3,2-d]pyrimidin-6-yl)propan-1-ol] came in with a 50% inhibitory concentration (IC50) of less than 1000 nM.

In the case of `CC(=O)NC(C)c1cc2nccc(-c3cc(Cl)cc4c3O[C@@H](c3onc5c3CNCC5)C4)c2s1` (stereo partly drawn) [N-(1-(7-((R)-5-chloro-2-(4,5,6,7-tetrahydroisoxazolo[4,3-c]pyridin-3-yl)-2,3-dihydrobenzofuran-7-yl)thieno[3,2-b]pyridin-2-yl)ethyl)acetamide], the half-inhibitory concentration (IC50) is less than 1000 nM.

`C[C@H]1C[C@H](NC(=O)C2Cc3cc(Cl)cc(-c4ccnc5[nH]ccc45)c3O2)CCN1` (stereo partly drawn) [5-chloro-N-((2S,4R)-2-methylpiperidin-4-yl)-7-(1H-pyrrolo[2,3-b]pyridin-4-yl)-2,3-dihydrobenzofuran-2-carboxamide]: the IC50 was in the range of 1000 to 10000 nM.
